# Reference: patent publication US9980943B2, “Methods of treating muscular dystrophy” (BOARD OF REGENTS OF THE NEVADA SYSTEM OF HIGHER EDUCATION, …, priority 2013, dated 2018)
# Key:
# Type in all cases: cell-based, mouse
# [1] = test system: α7 integrin (LacZ reporter in α7βgal+/− myoblasts); assay: Myoblast α7+/LacZ integrin FDG assay (Burkin assay in myoblasts, 96-well); conditions: α7+/LacZ myoblasts, 96-well
# [2] = test system: α7 integrin (LacZ reporter in α7+/LacZ myotubes); assay: Myotube α7 integrin FDG assay (Burkin assay in myotubes, 96-well); conditions: myotubes
# [3] = test system: β-galactosidase in CMV-LacZ C2C12 myotubes; assay: CMV-LacZ secondary screen in C2C12 myotubes (β-Gal stabilizing assay); conditions: for CMV-LACZ in Myotubes (β-galactosidase activity relative to DMSO): CMV-LacZ C2C12 myotubes, 96-well format
# Procedure, shortened: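 First, C2C12 myoblasts were transfected with a linearized CMV-LACZ vector and clonal lines selected by FDG β-gal assay. Then cells were exposed to compounds at 0.5, 1, 5, 10, 20 and 40 μM in 96-well format, two replicates each, and β-gal measured.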
# [4] = 5 uM, C2C12 CMV-LacZ myotubes, fold relative to DMSO
# [5] = 10 uM, C2C12 CMV-LacZ myotubes, fold relative to DMSO
# [6] = 20 uM, C2C12 CMV-LacZ myotubes, fold relative to DMSO
# [7] = 40 uM, C2C12 CMV-LacZ myotubes, fold relative to DMSO
SMILES,"CMV-LACZ in Myotubes, signal relative to DMSO [3, 4]","CMV-LACZ in Myotubes, signal relative to DMSO [3, 5]","CMV-LACZ in Myotubes, signal relative to DMSO [3, 6]","CMV-LACZ in Myotubes, signal relative to DMSO [3, 7]","Burkin Assay in Myoblasts, value relative to DMSO ([1]; 0.5 uM)","Burkin Assay in Myoblasts, value relative to DMSO ([1]; 1 uM)","Burkin Assay in Myoblasts, value relative to DMSO ([1]; 5 uM)","Burkin Assay in Myoblasts, value relative to DMSO ([1]; 10 uM)","Burkin Assay in Myoblasts, value relative to DMSO ([1]; 20 uM)","Burkin Assay in Myoblasts, value relative to DMSO ([1]; 40 uM)",Burkin Assay in Myotubes (signal relative to DMSO) ([2]; 0.5 uM),Burkin Assay in Myotubes (signal relative to DMSO) ([2]; 1 uM),Burkin Assay in Myotubes (signal relative to DMSO) ([2]; 5 uM),Burkin Assay in Myotubes (signal relative to DMSO) ([2]; 10 uM),Burkin Assay in Myotubes (signal relative to DMSO) ([2]; 20 uM),Burkin Assay in Myotubes (signal relative to DMSO) ([2]; 40 uM),CMV-LACZ in Myotubes (β-galactosidase activity relative to DMSO) ([3]; 5 uM),CMV-LACZ in Myotubes (β-galactosidase activity relative to DMSO) ([3]; 10 uM),CMV-LACZ in Myotubes (β-galactosidase activity relative to DMSO) ([3]; 20 uM),CMV-LACZ in Myotubes (β-galactosidase activity relative to DMSO) ([3]; 40 uM),also measured
COc1ccc(S(=O)(=O)N(NC2=NS(=O)(=O)c3ccccc32)C(=O)C(C)C)cc1 [MLS000682883-01],0.9333,1.084,1.087,0.8967,–,–,–,–,–,–,–,–,–,–,–,–,–,–,–,–,"Burkin Assay in Myoblasts, signal relative to DMSO ([1]; 0.5 uM): 0.9476; Burkin Assay in Myoblasts, signal relative to DMSO ([1]; 1 uM): 0.9633; Burkin Assay in Myoblasts, signal relative to DMSO ([1]; 5 uM): 1.011; Burkin Assay in Myoblasts, signal relative to DMSO ([1]; 10 uM): 0.9192; Burkin Assay in Myoblasts, signal relative to DMSO ([1]; 20 uM): 0.8269; Burkin Assay in Myoblasts, signal relative to DMSO ([1]; 40 uM): 0.7379; Burkin Assay in Myotubes, α7 integrin LacZ reporter signal relative to DMSO ([2]; 0.5 uM): 0.8116; Burkin Assay in Myotubes, α7 integrin LacZ reporter signal relative to DMSO ([2]; 1 uM): 1.095; Burkin Assay in Myotubes, α7 integrin LacZ reporter signal relative to DMSO ([2]; 5 uM): 0.9936; Burkin Assay in Myotubes, α7 integrin LacZ reporter signal relative to DMSO ([2]; 10 uM): 1.01; Burkin Assay in Myotubes, α7 integrin LacZ reporter signal relative to DMSO ([2]; 20 uM): 1.102; Burkin Assay in Myotubes, α7 integrin LacZ reporter signal relative to DMSO ([2]; 40 uM): 1.094"
O=C(NCCCn1ccnc1)/C(=C/c1cccs1)NC(=O)c1ccco1 [MLS000712769-01],0.9651,1.071,0.9141,0.8582,1.055,1.059,0.9476,0.9286,0.7697,0.7893,0.9746,0.8428,1.2524,0.9038,0.9219,0.9817,–,–,–,–,–
Cc1cccc(OCc2nc(C#N)c(N3CCCC3)o2)c1 [MLS000332693-01],–,–,–,–,1.04,0.9937,1.068,1.095,0.895,0.9225,1.0441,0.9631,1.092,0.9798,0.9709,0.9252,1.244,0.9794,0.8804,0.9304,–
Cc1ccc(C2Nc3cccc4cccc(c34)N2)s1 [MLS000591198-01],–,–,–,–,1.006,0.9251,1.037,0.9593,0.7765,0.473,1.017,0.881,1,0.8548,0.9852,0.7014,0.9681,0.9319,0.8338,0.4531,–
COc1ccc2oc(C[S+]([O-])c3ccccc3)c(C(=O)O)c2c1 (centres unmarked) [MLS001208858-01],0.944,0.8018,0.9471,0.9238,–,–,–,–,–,–,–,–,–,–,–,–,–,–,–,–,"Burkin Assay in Myoblasts, signal relative to DMSO ([1]; 0.5 uM): 0.9851; Burkin Assay in Myoblasts, signal relative to DMSO ([1]; 1 uM): 1.003; Burkin Assay in Myoblasts, signal relative to DMSO ([1]; 5 uM): 0.8892; Burkin Assay in Myoblasts, signal relative to DMSO ([1]; 10 uM): 0.8759; Burkin Assay in Myoblasts, signal relative to DMSO ([1]; 20 uM): 0.8548; Burkin Assay in Myoblasts, signal relative to DMSO ([1]; 40 uM): 0.8425; Burkin Assay in Myotubes, α7 integrin LacZ reporter signal relative to DMSO ([2]; 0.5 uM): 1.095; Burkin Assay in Myotubes, α7 integrin LacZ reporter signal relative to DMSO ([2]; 1 uM): 0.9977; Burkin Assay in Myotubes, α7 integrin LacZ reporter signal relative to DMSO ([2]; 5 uM): 1.104; Burkin Assay in Myotubes, α7 integrin LacZ reporter signal relative to DMSO ([2]; 10 uM): 1.062; Burkin Assay in Myotubes, α7 integrin LacZ reporter signal relative to DMSO ([2]; 20 uM): 1.1; Burkin Assay in Myotubes, α7 integrin LacZ reporter signal relative to DMSO ([2]; 40 uM): 1.007"
COc1ccccc1CNS(=O)(=O)c1ccc(Cl)s1 [MLS001175449-01],0.8534,0.9034,0.889,0.8671,1.0562,1.036,1.045,0.9949,1.066,0.7564,1.1188,1.016,1.156,0.9366,1.151,0.8041,–,–,–,–,–
COc1ccc(-n2c(C)c(C(C)=O)c3cc(OC(C)=O)ccc32)cc1 [MLS001212998-01],–,–,–,–,–,–,–,–,–,–,–,–,–,–,–,–,–,–,–,–,"fold induction at 0.5 µM ([1]; Mus musculus, Myoblast, 48 h, 0.5 uM, read-out: Burkin Assay in Myoblasts, signal relative to DMSO): 1.19; fold induction at 1 µM ([1]; Mus musculus, Myoblast, 48 h, 1 uM, read-out: Burkin Assay in Myoblasts, signal relative to DMSO): 1.2; fold induction at 5 µM ([1]; Mus musculus, Myoblast, 48 h, 5 uM, read-out: Burkin Assay in Myoblasts, signal relative to DMSO): 1.45; fold induction at 10 µM ([1]; Mus musculus, Myoblast, 48 h, 10 uM, read-out: Burkin Assay in Myoblasts, signal relative to DMSO): 1.54; fold induction at 20 µM ([1]; Mus musculus, Myoblast, 48 h, 20 uM, read-out: Burkin Assay in Myoblasts, signal relative to DMSO): 1.36; fold induction at 40 µM ([1]; Mus musculus, Myoblast, 48 h, 40 uM, read-out: Burkin Assay in Myoblasts, signal relative to DMSO): 1.3; fold induction at 0.5 µM ([2]; Mus musculus, Myotube, 0.5 uM, read-out: Burkin Assay in Myotubes, α7 integrin LacZ reporter signal relative to DMSO): 1.14; fold induction at 1 µM ([2]; Mus musculus, Myotube, 1 uM, read-out: Burkin Assay in Myotubes, α7 integrin LacZ reporter signal relative to DMSO): 1.1; fold induction at 5 µM ([2]; Mus musculus, Myotube, 5 uM, read-out: Burkin Assay in Myotubes, α7 integrin LacZ reporter signal relative to DMSO): 1.46; fold induction at 10 µM ([2]; Mus musculus, Myotube, 10 uM, read-out: Burkin Assay in Myotubes, α7 integrin LacZ reporter signal relative to DMSO): 1.45; fold induction at 20 µM ([2]; Mus musculus, Myotube, 20 uM, read-out: Burkin Assay in Myotubes, α7 integrin LacZ reporter signal relative to DMSO): 1.45; fold induction at 40 µM ([2]; Mus musculus, Myotube, 40 uM, read-out: Burkin Assay in Myotubes, α7 integrin LacZ reporter signal relative to DMSO): 1.05; fold induction at 5 µM ([3]; Mus musculus, C2C12, read-out: CMV-LACZ in Myotubes, signal relative to DMSO, 5 uM, C2C12 CMV-LacZ myotubes, fold relative to DMSO): 0.78; fold induction at 10 µM ([3]; Mus musculus, C2C12, read-out: CMV-LACZ in Myotubes, signal relative to DMSO, 10 uM, C2C12 CMV-LacZ myotubes, fold relative to DMSO): 0.908; fold induction at 20 µM ([3]; Mus musculus, C2C12, read-out: CMV-LACZ in Myotubes, signal relative to DMSO, 20 uM, C2C12 CMV-LacZ myotubes, fold relative to DMSO): 0.972; fold induction at 40 µM ([3]; Mus musculus, C2C12, read-out: CMV-LACZ in Myotubes, signal relative to DMSO, 40 uM, C2C12 CMV-LacZ myotubes, fold relative to DMSO): 0.783"
CS(=O)(=O)Cc1cccc(C(=O)NN(c2ccccc2)c2ccccc2)c1 [MLS001175473-01],–,–,–,–,0.5331,0.3721,0.8732,0.8715,0.899,0.8698,0.9556,0.9177,0.8872,0.9977,1.041,0.7971,0.8962,0.8587,0.9592,1.066,–
